# From ChEMBL document CHEMBL1201862, “PubChem BioAssay data set” (2004)
#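 All cell lines were grown in 96-well plates and treated with compound for 48 hours. At the GI50, growth is halved.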 Activity calls are given as the source filed them. No stated cut-off is given here; in the data, active = GI50 up to about 1.1 µM and inactive = higher.
# How the values were obtained:
# Assay in all cases: growth of human tumour cells (NCI), 48 h
# ACHN = test system: ACHN
# CAKI-1 = test system: CAKI-1
# COLO 205 = test system: COLO 205
# HCT-15 = test system: HCT-15
# HL-60 = test system: HL-60
# HOP-92 = test system: HOP-92
# KM12 = test system: KM12
# OVCAR-4 = test system: OVCAR-4
# OVCAR-5 = test system: OVCAR-5
# OVCAR-8 = test system: OVCAR-8
# RPMI-8226 = test system: RPMI-8226
# SK-MEL-2 = test system: SK-MEL-2
# SK-MEL-5 = test system: SK-MEL-5
# SK-OV-3 = test system: SK-OV-3
# SNB-19 = test system: SNB-19
# U-251 = test system: U-251
# UACC-257 = test system: UACC-257
# UACC-62 = test system: UACC-62
# SK-MEL-28 = test system: SK-MEL-28
Compound,GI50 (ACHN),GI50 (CAKI-1),GI50 (COLO 205),GI50 (HCT-15),GI50 (HL-60),GI50 (HOP-92),GI50 (KM12),GI50 (OVCAR-4),GI50 (OVCAR-5),GI50 (OVCAR-8),GI50 (RPMI-8226),GI50 (SK-MEL-2),GI50 (SK-MEL-5),GI50 (SK-OV-3),GI50 (SNB-19),GI50 (U-251),GI50 (UACC-257),GI50 (UACC-62),GI50 (SK-MEL-28)
Cc1nc2cc3nc4ccccc4c(O)c3cc2s1,> 100 µM (inactive),> 100 µM (inactive),> 100 µM (inactive),> 100 µM,> 100 µM (inactive),> 100 µM (inactive),> 100 µM (inactive),> 100 µM (inactive),> 100 µM (inactive),> 100 µM (inactive),> 100 µM (inactive),> 100 µM (inactive),> 100 µM (inactive),> 100 µM (inactive),> 100 µM (inactive),> 100 µM (inactive),> 100 µM (inactive),> 100 µM (inactive),–
CC(=O)/C(=C\C1=CCCO1)C(=O)Nc1ccccc1C,> 100 µM (inactive),> 100 µM (inactive),–,> 100 µM,> 100 µM (inactive),> 100 µM (inactive),> 100 µM (inactive),> 100 µM (inactive),> 100 µM (inactive),> 100 µM (inactive),> 100 µM (inactive),> 100 µM (inactive),> 100 µM (inactive),> 100 µM (inactive),> 100 µM (inactive),> 100 µM (inactive),> 100 µM (inactive),> 100 µM (inactive),> 10 µM (inactive)
COC(=O)N/N=C(\C)CC(=O)Nc1cccc([N+](=O)[O-])c1,–,–,> 100 µM (inactive),–,> 100 µM (inactive),> 100 µM (inactive),> 100 µM (inactive),–,> 100 µM (inactive),> 100 µM (inactive),> 100 µM (inactive),> 100 µM (inactive),> 100 µM (inactive),> 100 µM (inactive),–,> 100 µM (inactive),> 100 µM (inactive),> 100 µM (inactive),> 100 µM (inactive)
CCOC(=O)C1(c2ccccc2)CCCNCC1 (stereo not drawn),85.9 µM (inactive),> 100 µM (inactive),> 100 µM (inactive),72.9 µM,98.4 µM (inactive),75.2 µM (inactive),> 100 µM (inactive),> 100 µM (inactive),81.3 µM (inactive),39.4 µM (inactive),88.1 µM (inactive),> 100 µM (inactive),50.7 µM (inactive),> 100 µM (inactive),> 100 µM (inactive),> 100 µM (inactive),68.1 µM (inactive),> 100 µM (inactive),> 100 µM (inactive)
CC1=N/C(=C\c2cccc([N+](=O)[O-])c2)C(=O)O1,> 100 µM (inactive),–,> 100 µM (inactive),> 100 µM,> 100 µM (inactive),> 100 µM (inactive),> 100 µM (inactive),–,> 100 µM (inactive),> 100 µM (inactive),> 100 µM (inactive),> 100 µM (inactive),> 100 µM (inactive),–,> 100 µM (inactive),> 100 µM (inactive),> 100 µM (inactive),> 100 µM (inactive),> 100 µM (inactive)
CCOC(=O)C(=O)Nc1c(C(C)C)cccc1C(C)C,> 100 µM (inactive),> 100 µM (inactive),> 100 µM (inactive),> 100 µM,> 100 µM (inactive),> 100 µM (inactive),> 100 µM (inactive),> 100 µM (inactive),–,> 100 µM (inactive),–,> 100 µM (inactive),> 100 µM (inactive),> 100 µM (inactive),> 100 µM (inactive),> 100 µM (inactive),> 100 µM (inactive),> 100 µM (inactive),> 100 µM (inactive)
COC(=O)C(CC(=O)Nc1ccc(C)cc1)C(=O)C(=O)Nc1c(C(C)C)cccc1C(C)C (stereo not drawn),> 100 µM (inactive),> 100 µM (inactive),> 100 µM (inactive),48.6 µM,> 100 µM (inactive),> 100 µM (inactive),–,> 100 µM (inactive),> 100 µM (inactive),> 100 µM (inactive),> 100 µM (inactive),> 100 µM (inactive),–,> 100 µM (inactive),> 100 µM (inactive),> 100 µM (inactive),–,55.2 µM (inactive),> 100 µM (inactive)
O=[N+]([O-])c1ccc(NSc2ccccc2)cc1,33.2 µM (inactive),–,30.7 µM (inactive),19.8 µM,15 µM (inactive),28.7 µM (inactive),27.8 µM (inactive),–,89.7 µM (inactive),19.8 µM (inactive),> 10 µM (inactive),42.9 µM (inactive),31.8 µM (inactive),29.9 µM (inactive),70.3 µM (inactive),29.7 µM (inactive),29.3 µM (inactive),20.1 µM (inactive),45.3 µM (inactive)
O=S1(=O)CSc2ccc3ccccc3c2-c2c1ccc1ccccc21,> 100 µM (inactive),> 100 µM (inactive),> 100 µM (inactive),–,> 100 µM (inactive),> 100 µM (inactive),> 100 µM (inactive),> 100 µM (inactive),> 100 µM (inactive),> 100 µM (inactive),–,–,> 100 µM (inactive),–,> 100 µM (inactive),> 100 µM (inactive),> 100 µM (inactive),> 100 µM (inactive),> 100 µM (inactive)
NC(=S)N/N=C1\C(=O)N(c2cccc([N+](=O)[O-])c2)C(=O)C1C(=O)Nc1cccc([N+](=O)[O-])c1 (stereo not drawn),> 100 µM (inactive),> 100 µM (inactive),> 100 µM (inactive),> 100 µM,38.4 µM (inactive),> 100 µM (inactive),–,> 100 µM (inactive),> 100 µM (inactive),> 100 µM (inactive),> 100 µM (inactive),> 100 µM (inactive),> 100 µM (inactive),> 100 µM (inactive),> 100 µM (inactive),> 100 µM (inactive),> 100 µM (inactive),> 100 µM (inactive),> 100 µM (inactive)
Nc1c(S(=O)(=O)c2ccc(Cl)cc2)c2nc3ccccc3nc2n2ccnc12,40.3 µM (inactive),–,> 100 µM (inactive),> 100 µM,30.1 µM (inactive),> 100 µM (inactive),> 100 µM (inactive),14.5 µM (inactive),> 100 µM (inactive),48.4 µM (inactive),> 100 µM (inactive),> 100 µM (inactive),> 100 µM (inactive),38.4 µM (inactive),48.5 µM (inactive),61.8 µM (inactive),> 100 µM (inactive),–,> 100 µM (inactive)
CN(C)CC1CCCC/C1=N/O (stereo not drawn),> 100 µM (inactive),> 100 µM (inactive),> 100 µM (inactive),> 100 µM,> 100 µM (inactive),> 100 µM (inactive),> 100 µM (inactive),> 100 µM (inactive),> 100 µM (inactive),> 100 µM (inactive),> 100 µM (inactive),> 100 µM (inactive),> 100 µM (inactive),> 100 µM (inactive),–,> 100 µM (inactive),> 100 µM (inactive),> 100 µM (inactive),> 100 µM (inactive)
O=C(NS(=O)(=O)c1ccccc1)C(Cc1ccccc1)C(Cc1ccccc1)C(=O)NS(=O)(=O)c1ccccc1 (stereo not drawn),> 100 µM (inactive),> 100 µM (inactive),> 100 µM (inactive),–,> 100 µM (inactive),> 100 µM (inactive),> 100 µM (inactive),> 100 µM (inactive),> 100 µM (inactive),> 100 µM (inactive),> 100 µM (inactive),> 100 µM (inactive),> 100 µM (inactive),> 100 µM (inactive),> 100 µM (inactive),> 100 µM (inactive),> 100 µM (inactive),> 100 µM (inactive),> 100 µM (inactive)
CC1OC(OC2C(OC(=O)[C@]34CCC(C)(C)CC3C3=CCC5[C@@]6(C)C[C@H](O)[C@H](OC7OC(COC8OC(CO)C(O)C(O)C8O)C(O)C(O)C7O)[C@@](C)(C(=O)O)C6CC[C@@]5(C)C3(C)CC4)OCC(O)C2O)C(O)C(O)C1OC1OCC(O)C(O)C1O (stereo partly drawn),> 100 µM (inactive),> 100 µM (inactive),> 100 µM (inactive),> 100 µM,> 100 µM (inactive),> 100 µM (inactive),> 100 µM (inactive),–,> 100 µM (inactive),> 100 µM (inactive),> 100 µM (inactive),> 100 µM (inactive),> 100 µM (inactive),> 100 µM (inactive),> 100 µM (inactive),> 100 µM (inactive),> 100 µM (inactive),> 100 µM (inactive),> 100 µM (inactive)
COC1C2C=CC(C2)[C@H]1[N+](=O)[O-] (stereo partly drawn),> 100 µM (inactive),> 100 µM (inactive),> 100 µM (inactive),> 100 µM,28.8 µM (inactive),> 100 µM (inactive),> 100 µM (inactive),> 100 µM (inactive),> 100 µM (inactive),56.8 µM (inactive),–,> 100 µM (inactive),> 100 µM (inactive),> 100 µM (inactive),> 100 µM (inactive),> 100 µM (inactive),> 100 µM (inactive),> 100 µM (inactive),–
Nc1nc(N)c2cc(Sc3cccc(C(F)(F)F)c3)ccc2n1 [WR-159412],0.885 µM (active),1.17 µM (inactive),1.21 µM (inactive),0.499 µM,1.62 µM (inactive),2.94 µM (inactive),2.59 µM (inactive),6.78 µM (inactive),13 µM (inactive),–,1.93 µM (inactive),2.23 µM (inactive),3.71 µM (inactive),9.08 µM (inactive),4.81 µM (inactive),0.771 µM (active),–,0.755 µM (active),4.46 µM (inactive)
